Test results: US8034787B2, “Enzyme-cleavable prodrug compounds” (Medarex, Inc., priority 1998, dated 2011)
Square brackets hold non-standard residues; d marks the D form. Peptide text beside a SMILES is read from it. * marks the point of attachment. Mcc = 7-methoxycoumarin-3-carboxyl, COc1ccc2cc(C(=O)*)c(=O)oc2c1; Sta = CC(C)C[C@H](N)[C@@H](O)CC(=O)O; Isovaleryl = CC(C)CC(=O)*

Legend:
[1] = biological target: T1, recombinant rat TOP (rRTOP) (Rattus norvegicus, UniProt P24155); assay: Rates of hydrolysis by recombinant rat TOP; type: biochemical; details: for Rate of hydrolysis TOP: 10 μg/mL substrate, pH 7.2 10 mM HEPES, 100 μM MnCl2, 37° C., Suc-βAla-Leu-Ala-Leu-Dox = 1.0
T1 construct: made in house; host or cells: E. coli

[2] = biological target: T2, HeLa cell Fraction 1 trouase (Homo sapiens, UniProt P52888); assay: Inhibition of Suc-βAla-Leu-Ala-Leu-Dox hydrolysis by HeLa cell Fraction 1; type: biochemical; details: 3 μM
T2 construct: The fractions containing the highest activity levels were pooled (fractions #43-46); host or cells: HeLa

Porcine Kidney CD10 = assay: Hydrolysis by purified CD10; type: biochemical; details: 12.5 μg/mL, 37° C., pH 7.4, 10 hr
[3] = biological target: T3, MCF-7/6 cell homogenate trouase (Homo sapiens, UniProt P52888); assay: Inhibition of MCF-7/6 cell homogenate trouase activity; type: biochemical
T3 construct: the cells (approximately 300 μL wet) were homogenized by grinding in 1.7 mL 10 mM pH 7.2 HEPES buffer; endogenous in cells; host or cells: MCF-7/6 (breast carcinoma)

HeLa cell trouase (F1) = biological target: T4, HeLa cell trouase (F1) (Homo sapiens, UniProt P52888); assay: Rates of hydrolysis by partially purified HeLa cell trouase (F1); type: biochemical; details: 10 μg/mL substrate, pH 7.2 10 mM HEPES, 100 μM MnCl2, 37° C.; Suc-βAla-Leu-Ala-Leu-Dox = 1.0
T4 construct: The fractions containing the highest activity levels were pooled (fractions #43-46); host or cells: HeLa

[4] = Acute toxicity of N-capped prodrugs, intravenous bolus in mice; type: in vivo; details: intravenous bolus of 250 mg/kg (Dox-HCl eq.), three to five mice per group
HL-60 cells = assay: 3H-thymidine incorporation proliferation assay; type: cell-based; details: 24 hours
Description: Promyelocytic leukemia cells, HL-60, were cultured in RPMI media containing 10% heat inactivated fetal calf serum (FCS). On the day of the study, the cells were collected, washed and resuspended at a concentration of 0.5×10^6 cells/ml in RPMI containing 10% FCS. 100 μl/well of cell suspension was added to 96 well plates. […] Finally, 10 μl of a 100 μCi/ml ^3H-thymidine was added per well and the plates were incubated for 24 hours. The plates were harvested using a 96 well Harvester (Packard Instruments) and counted on a Packard Top Count counter. Four parameter logistic curves were fitted to the ^3H-thymidine incorporation as a function of drug molarity using Prism software to determine IC50 values.

[5] = biological target: T5, MCF-7/6 cell conditioned media trouase (Homo sapiens, UniProt P52888); assay: Thiol activation of MCF-7/6 conditioned medium; type: biochemical; details: 1 mM DTT, 30 minutes pre-incubation
T5 construct: MCF-7/6 conditioned medium was pre-incubated for 30 minutes at room temperature with dithiothreitol (DTT); endogenous in cells; host or cells: MCF-7/6 conditioned medium

[6] = biological target: T6, partially purified trouase preparation (Homo sapiens, UniProt P52888); assay: Extent of cleavage by partially purified trouase preparation (Example 14); type: biochemical; details: 12.5 μg/mL, 2 hr, 37° C.
T6 construct: The fractions containing the highest activity levels were pooled (fractions #43-46); host or cells: HeLa

MCF 7/6 cell homogenate = assay: Extent of cleavage by cell homogenate (Example 14); type: biochemical, human; details: 12.5 μg/mL, 2 hr, 37° C.

T3 sequence (P52888 whole entry): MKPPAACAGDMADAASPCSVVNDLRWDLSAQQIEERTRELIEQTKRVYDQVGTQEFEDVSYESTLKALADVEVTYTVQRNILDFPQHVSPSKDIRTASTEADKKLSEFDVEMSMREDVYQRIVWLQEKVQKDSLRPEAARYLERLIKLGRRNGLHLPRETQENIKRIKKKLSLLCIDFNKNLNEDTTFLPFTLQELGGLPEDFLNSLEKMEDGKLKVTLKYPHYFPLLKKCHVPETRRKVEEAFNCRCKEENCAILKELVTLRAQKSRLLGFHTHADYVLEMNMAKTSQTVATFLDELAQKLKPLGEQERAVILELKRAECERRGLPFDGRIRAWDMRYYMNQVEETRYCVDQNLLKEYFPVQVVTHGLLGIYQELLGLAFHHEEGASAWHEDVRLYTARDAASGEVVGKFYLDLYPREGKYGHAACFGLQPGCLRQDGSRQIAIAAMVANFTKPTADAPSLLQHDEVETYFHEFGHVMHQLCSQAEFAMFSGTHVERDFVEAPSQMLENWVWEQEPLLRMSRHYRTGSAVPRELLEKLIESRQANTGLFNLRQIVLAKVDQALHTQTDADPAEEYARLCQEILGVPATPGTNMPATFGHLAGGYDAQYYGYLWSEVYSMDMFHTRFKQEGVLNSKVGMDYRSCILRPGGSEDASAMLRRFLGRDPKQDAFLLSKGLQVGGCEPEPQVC
T4 sequence (P52888 whole entry): as above
T1 sequence (P24155 whole entry): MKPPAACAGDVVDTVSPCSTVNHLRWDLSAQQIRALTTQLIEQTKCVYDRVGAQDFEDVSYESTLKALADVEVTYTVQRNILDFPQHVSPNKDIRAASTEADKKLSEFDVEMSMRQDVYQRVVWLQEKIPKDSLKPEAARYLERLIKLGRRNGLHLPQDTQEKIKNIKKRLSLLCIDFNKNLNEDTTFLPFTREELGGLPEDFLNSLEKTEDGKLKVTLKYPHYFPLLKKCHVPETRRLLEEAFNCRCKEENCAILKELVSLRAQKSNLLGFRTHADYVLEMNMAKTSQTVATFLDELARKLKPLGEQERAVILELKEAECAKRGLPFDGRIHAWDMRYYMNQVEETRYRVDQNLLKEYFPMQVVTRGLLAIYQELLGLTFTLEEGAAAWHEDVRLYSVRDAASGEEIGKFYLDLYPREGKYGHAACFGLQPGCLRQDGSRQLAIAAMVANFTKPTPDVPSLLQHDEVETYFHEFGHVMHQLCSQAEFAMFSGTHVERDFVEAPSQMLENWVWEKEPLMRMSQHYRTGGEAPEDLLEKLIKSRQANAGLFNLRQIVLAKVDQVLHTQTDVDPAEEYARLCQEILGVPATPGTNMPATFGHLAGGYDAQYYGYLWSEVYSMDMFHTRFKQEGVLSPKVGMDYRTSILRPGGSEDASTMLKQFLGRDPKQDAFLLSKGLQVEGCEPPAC
T6 sequence (P52888 whole entry): as the sequence (P52888 whole entry) above
T2 sequence (P52888 whole entry): as above
T5 sequence (P52888 whole entry): as above

Compound: COc1cccc2c1C(=O)c1c(O)c3c(c(O)c1C2=O)CC(O)(C(=O)CO)CC3OC1CC(NC(=O)CNC(=O)C(C)NC(=O)C(CC(C)C)NC(=O)CCNC(=O)CCC(=O)O)C(O)C(C)O1 (stereo not drawn) [Suc-βAla-Leu-Ala-Gly-Dox]
- cleavage by TOP [1]: well cleaved

Compound: N-[1-(RS)-carboxypropyl-Ala-Ala-Phe-p-aminobenzoate [Cpp-AAF-pAB]
- inhibition of Suc-βAla-Leu-Ala-Leu-Dox hydrolysis [2]: completely inhibited

Compound: COc1cccc2c1C(=O)c1c(O)c3c(c(O)c1C2=O)CC(O)(C(=O)CO)CC3OC1CC(NC(=O)C(CC(C)C)NC(=O)C(Cc2ccc(O)cc2)NC(=O)C(CC(C)C)NC(=O)CCNC(=O)CCC(=O)O)C(O)C(C)O1 (stereo not drawn) [Suc-βAla-Leu-Tyr-Leu-Dox]
- % hydrolysis/10 hr (Porcine Kidney CD10): 0%
- Fraction hydrolyzed relative to standard (Porcine Kidney CD10): 0

Compound: CC(C)CC(=O)N[C@H](C(=O)N[C@H](C(=O)N[C@@H](CC(C)C)[C@@H](O)CC(=O)N[C@@H](C)C(=O)N[C@@H](CC(C)C)[C@@H](O)CC(=O)O)C(C)C)C(C)C [pepstatin] (Isovaleryl-VV[Sta]A[Sta]-OH)
- trouase activity inhibition ([3]; 1.5 μM): not inhibited

Compound: CC[C@H](C)[C@H](NC(=O)CCC(=O)O)C(=O)N[C@@H](C)C(=O)N[C@@H](CC(C)C)C(=O)N[C@H]1C[C@H](O[C@H]2C[C@](O)(C(=O)CO)Cc3c(O)c4c(c(O)c32)C(=O)c2c(OC)cccc2C4=O)O[C@@H](C)[C@H]1O [Suc-Ile-Ala-Leu-Dox]
- Rate of hydrolysis (F1) (HeLa cell trouase (F1)): 0
- Rate of hydrolysis TOP [1]: 0

Compound: CCC(C)C(NC(=O)CCC(=O)O)C(=O)N(C)C(C)C(=O)NC(CC(C)C)C(=O)NC1CC(OC2CC(O)(C(=O)CO)Cc3c(O)c4c(c(O)c32)C(=O)c2c(OC)cccc2C4=O)OC(C)C1O (stereo not drawn) [Suc-Ile-NmAla-Leu-Dox]
- Rate of hydrolysis (F1) (HeLa cell trouase (F1)): 0
- Rate of hydrolysis TOP [1]: 0

Compound: aminoethylbenzenesulfonylfluoride
- trouase activity inhibition ([3]; 50 μM): not inhibited

Compound: COc1cccc2c1C(=O)c1c(O)c3c(c(O)c1C2=O)C[C@@](O)(C(=O)CO)C[C@@H]3O[C@H]1C[C@H](NC(=O)[C@H](CC(C)C)NC(=O)[C@H](C)NC(=O)[C@H](CC(C)C)NC(=O)CCNC(=O)CCCC(=O)O)[C@H](O)[C@H](C)O1 [Gl-βAla-Leu-Ala-Leu-Dox]
- survival up to 8 days [4]: all animals survived

Compound: COc1cccc2c1C(=O)c1c(O)c3c(c(O)c1C2=O)C[C@@](O)(C(=O)CO)C[C@@H]3O[C@H]1C[C@H](NC(=O)[C@@H](N)CC(C)C)[C@H](O)[C@H](C)O1 [Leucyl-Doxorubicin]
- IC50 (HL-60 cells): 0.222 µM

Compound: COc1cccc2c1C(=O)c1c(O)c3c(c(O)c1C2=O)CC(O)(C(=O)CO)CC3OC1CC(NC(=O)C(C)NC(=O)C(C)NC(=O)C(CC(C)C)NC(=O)CCNC(=O)CCC(=O)O)C(O)C(C)O1 (stereo not drawn) [Suc-βAla-Leu-Ala-Ala-Dox]
- cleavage by TOP (presumed) [1]: well cleaved

Compound: O[C@H](CS)[C@H](O)CS (racemic) [DTT, dithiothreitol]
- activation of Suc-βAla-Leu-Ala-Leu-Dox hydrolysis [5]: tenfold activation

Compound: CC(=O)N[C@@H](CC(C)C)C(=O)N[C@@H](CC(C)C)C(=O)N[C@H](C=O)CCCNC(=N)N [leupeptin]
- trouase activity inhibition ([3]; 20 μM leupeptin): not inhibited

Compound: COc1cccc2c1C(=O)c1c(O)c3c(c(O)c1C2=O)C[C@@](O)(C(=O)CO)C[C@@H]3O[C@H]1C[C@H](NC(=O)CNC(=O)[C@H](C)NC(=O)[C@H](CC(C)C)NC(=O)CCC(=O)O)[C@H](O)[C@H](C)O1 [Suc-Leu-Ala-Gly-Dox]
- Rate of hydrolysis (F1) (HeLa cell trouase (F1)): 0.4
- Rate of hydrolysis TOP [1]: 0.43

Compound: COc1cccc2c1C(=O)c1c(O)c3c(c(O)c1C2=O)CC(O)(C(=O)CO)CC3OC1CC(NC(=O)C(CC(C)C)NC(=O)C(C)N(C)C(=O)C(CC(C)C)NC(=O)CCC(=O)O)C(O)C(C)O1 (stereo not drawn) [Suc-Leu-NmAla-Leu-Dox]
- Rate of hydrolysis (F1) (HeLa cell trouase (F1)): 0
- Rate of hydrolysis TOP [1]: 0

Compound: aprotinin
- trouase activity inhibition ([3]; 4 μg/mL): not inhibited

Compound: CC[C@H](C)[C@H](NC(=O)CCNC(=O)CCC(=O)O)C(=O)N[C@@H](C)C(=O)N[C@@H](CC(C)C)C(=O)N[C@H]1C[C@H](O[C@H]2C[C@](O)(C(=O)CO)Cc3c(O)c4c(c(O)c32)C(=O)c2c(OC)cccc2C4=O)O[C@@H](C)[C@H]1O [Suc-βAla-Ile-Ala-Leu-Dox]
- Rate of hydrolysis (F1) (HeLa cell trouase (F1)): 0.025
- Rate of hydrolysis TOP [1]: <0.03

Compound: Mcc-Pro-Leu-Gly-Pro-D-Lys(DNP) (Mcc-PLGP-{dK(DNP)}) [quenched fluorescent substrate; Mcc = 7-Methoxycoumarin-3-carboxyl, DNP dinitrophenyl, reference compound]
- Rate of hydrolysis (F1) (HeLa cell trouase (F1)): 1.5
- Rate of hydrolysis TOP [1]: 1.1

Compound: CC(C)C[C@H](NC(=O)[C@H]1O[C@@H]1C(=O)O)C(=O)NCCCCN=C(N)N [E-64]
- trouase activity inhibition ([3]; 20 μM E-64): not inhibited

Compound: COc1cccc2c1C(=O)c1c(O)c3c(c(O)c1C2=O)C[C@@](O)(C(=O)CO)C[C@@H]3O[C@H]1C[C@H](NC(=O)[C@H](CC(C)C)NC(=O)[C@H](C)NC(=O)[C@H](CC(C)C)NC(=O)CCC(=O)O)[C@H](O)[C@H](C)O1 [Suc-Leu-Ala-Leu-Dox]
- Rate of hydrolysis (F1) (HeLa cell trouase (F1)): 0.78
- Rate of hydrolysis TOP [1]: 0.67

Compound: COc1cccc2c1C(=O)c1c(O)c3c(c(O)c1C2=O)C[C@@](O)(C(=O)CO)C[C@@H]3O[C@H]1C[C@H](NC(=O)[C@H](CC(C)C)NC(=O)[C@H](C)NC(=O)[C@H](CCSC)NC(=O)CCC(=O)O)[C@H](O)[C@H](C)O1 [Suc-Met-Ala-Leu-Dox]
- Rate of hydrolysis (F1) (HeLa cell trouase (F1)): 0.49
- Rate of hydrolysis TOP [1]: 0.99

Compound: CO[C@@H]1[C@H](OC(=O)/C=C/C=C/C=C/C=C/C(=O)O)CC[C@]2(CO2)[C@H]1[C@@]1(C)O[C@@H]1CC=C(C)C [fumagillin]
- carcinoma cell trouase inhibition ([3]; concentration not given): not

Compound: c1cnc2c(c1)ccc1cccnc12 [1,10 phenanthroline]
- trouase activity inhibition ([3]; 2 mM 1,10 phenanthroline): 9 fold

Compound: CCCNC(=O)[C@H]1O[C@@H]1C(=O)N[C@H](C(=O)N1CCC[C@H]1C(=O)O)[C@@H](C)CC [CA-074]
- trouase activity inhibition ([3]; 1 μM): not inhibited

Compound: COc1cccc2c1C(=O)c1c(O)c3c(c(O)c1C2=O)CC(O)(C(C)=O)CC3OC1CC(NC(=O)C(CC(C)C)NC(=O)C(C)NC(=O)C(CC(C)C)NC(=O)C(C)NC(=O)CCC(=O)O)C(O)C(C)O1 (stereo not drawn) [Suc-Ala-Leu-Ala-Leu-Dnr]
- extent of cleavage versus the P2 β-alanine compound [6]: 0.6 fold
- extent (rate) of cleavage versus the P2 β-alanine compound (MCF 7/6 cell homogenate): 1.3 fold

Compound: O=C(O)CN(CCN(CC(=O)O)CC(=O)O)CC(=O)O [EDTA]
- trouase activity inhibition ([3]; 1 mM EDTA): 9 fold
